Test results from patent US12685734B2, “N6-methyladenosine regulators in uterine fibroids” (The University of Chicago, priority 2021, dated 2026).

Assays:
HuLM cells = test: Cell proliferation, trypan blue exclusion assay, METTL3 inhibition; format: cell-based, human; settings: 1-10 μM, 24 hours, vs DMSO vehicle, FIG. 9
Experimental: The HuLM cell line was cultured and maintained in phenol red-free, Dulbecco's Modified Eagle Medium: Nutrient Mixture F-12. The cells were grown at 37° C. and 5% CO2 in an incubator with saturating humidity.
Cell proliferation was measured using trypan blue exclusion assay. The cells were cultured in the absence or presence of the METTL3 inhibitor STM2457 at a dose range from 1-10 μM for 24 hours. DMSO was used as a vehicle control. Cells were trypsinized, collected by centrifuge, and resuspended in serum-free medium. Equal volumes of 0.4% trypan blue and cell suspension were mixed and cells were counted using a hemacytometer. This assay was performed three times in triplicate.

[1] = system: Eker rats carrying Tsc2 germline mutation; settings: early-life exposure during development of the uterus, cited from earlier work

Compound | cell proliferation of UF cells (relative cell numbers) (HuLM cells) | tumor multiplicity and size ([1]; genetically predisposed animals) | tumor-suppressor-gene penetrance ([1]; spontaneous frequency 65%)
STM2457 | decreases the cell proliferation | – | –
CC/C(=C(/CC)c1ccc(O)cc1)c1ccc(O)cc1 [diethylstilbestrol] | – | increases | > 90%
